Test results from PubChem BioAssay (NCI).
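Where inhibition never reached the appropriate level, the endpoint shown equals the highest concentration tested. Otherwise, values were interpolated linearly from a five-concentration, 48-hour dose response in 96-well plates. GI50: concentration for 50% inhibition of growth. Definition used: TGI = concentration required for complete inhibition of growth.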

How the values were obtained:
Experiment in all cases: NCI anticancer screen, dose series, 48 h
RXF 393 renal = tested on: RXF 393 renal
SNB-75 CNS = tested on: SNB-75 CNS
SK-OV-3 ovarian = tested on: SK-OV-3 ovarian
SK-MEL-5 melanoma = tested on: SK-MEL-5 melanoma
HOP-92 NSCLC = tested on: HOP-92 NSCLC
COLO 205 colon = tested on: COLO 205 colon
KM12 colon = tested on: KM12 colon
HS 578T breast = tested on: HS 578T breast
SF-539 CNS = tested on: SF-539 CNS
CCRF-CEM leukemia = tested on: CCRF-CEM leukemia
OVCAR-3 ovarian = tested on: OVCAR-3 ovarian
NCI/ADR-RES ovarian = tested on: NCI/ADR-RES ovarian
CAKI-1 renal = tested on: CAKI-1 renal
U251 CNS = tested on: U251 CNS
MALME-3M melanoma = tested on: MALME-3M melanoma
MCF7 breast = tested on: MCF7 breast
SK-MEL-2 melanoma = tested on: SK-MEL-2 melanoma
A549 NSCLC = tested on: A549 NSCLC
A498 renal = tested on: A498 renal
EKVX NSCLC = tested on: EKVX NSCLC
SNB-19 CNS = tested on: SNB-19 CNS
T-47D breast = tested on: T-47D breast
HL-60(TB) leukemia = tested on: HL-60(TB) leukemia
SR leukemia = tested on: SR leukemia
DU-145 prostate = tested on: DU-145 prostate
786-0 renal = tested on: 786-0 renal
HCT-15 colon = tested on: HCT-15 colon
SK-MEL-28 melanoma = tested on: SK-MEL-28 melanoma
TK-10 renal = tested on: TK-10 renal

## COc1ccc(-c2nc(S(=O)(=O)c3ccc(C)cc3)c(S(C)(=O)=O)o2)cc1
RXF 393 renal
  GI50: 1.47 µM
  TGI: 2.94 µM
SNB-75 CNS
  GI50: 11.3 µM
  TGI: 23.7 µM
SK-OV-3 ovarian
  GI50: 18.5 µM
  TGI: 35.1 µM
SK-MEL-5 melanoma
  GI50: 12.8 µM
  TGI: 26.2 µM
HOP-92 NSCLC
  GI50: 3.03 µM
  TGI: 11.6 µM
COLO 205 colon
  GI50: 2.21 µM
  TGI: 4.95 µM
KM12 colon
  GI50: 16.2 µM
  TGI: 32.2 µM
HS 578T breast
  GI50: 5.35 µM
  TGI: 34 µM
SF-539 CNS
  GI50: 1.83 µM
  TGI: 3.8 µM
CCRF-CEM leukemia
  GI50: 2.38 µM
  TGI: 6.43 µM
OVCAR-3 ovarian
  GI50: 1.83 µM
  TGI: 3.37 µM
NCI/ADR-RES ovarian
  GI50: 12 µM
  TGI: 37.5 µM
CAKI-1 renal
  GI50: 2.82 µM
  TGI: 9.83 µM
U251 CNS
  GI50: 17 µM
  TGI: 31.7 µM
MALME-3M melanoma
  GI50: 1.45 µM
  TGI: 2.79 µM
MCF7 breast
  GI50: 2.14 µM
  TGI: 6.1 µM
SK-MEL-2 melanoma
  GI50: 14.3 µM
  TGI: 27.7 µM
A549 NSCLC
  GI50: 18.9 µM
  TGI: 39.4 µM
A498 renal
  GI50: 14.3 µM
  TGI: 27.4 µM
EKVX NSCLC
  GI50: 11 µM
  TGI: 25.4 µM
SNB-19 CNS
  GI50: 15.1 µM
  TGI: 28.3 µM
T-47D breast
  GI50: 2.03 µM
  TGI: 4.55 µM
HL-60(TB) leukemia
  GI50: 1.8 µM
  TGI: 6.14 µM
SR leukemia
  GI50: 2.83 µM
  TGI: > 100 µM
DU-145 prostate
  GI50: 2.57 µM
  TGI: 6.82 µM
786-0 renal
  GI50: 1.64 µM
  TGI: 3.47 µM
HCT-15 colon
  GI50: 1.96 µM
  TGI: 4.2 µM
SK-MEL-28 melanoma
  GI50: 3.2 µM
  TGI: 11 µM
TK-10 renal
  GI50: 7.76 µM
  TGI: 21 µM
